From patent US11319324B2, “Pyrazolo-pyrrolo-pyrimidine-dione derivatives as P2X3 inhibitors” (Bayer Aktiengesellschaft, priority 2017, dated 2022)

Tests used:
Type in all cases: cell-based
human P2X2/3 receptors = molecular target: T1, human P2X2/3 receptors (Homo sapiens, UniProt P56373+Q9UBL9); assay: Intracellular calcium measurement, antagonist activity at human P2X2/3 receptors (hP2X23 1321N1), Fluo8; details: for IC50: column 4); 1321N1 cells, human P2X2/3, Fluo8, agonist ATP at EC50; read-out: 4) hP2X2/3 IC50 [nM] (1321N1); for hP2X23/hP2X3* Selectivity (1321N1): ratio of column 4) hP2X2/3 to column 3) hP2X3, 1321N1
T1 construct: expressed in transfected cells; host or cells: human astrocytoma 1321N1 (1312N1 [sic])
T1 sequence (P56373 1-397): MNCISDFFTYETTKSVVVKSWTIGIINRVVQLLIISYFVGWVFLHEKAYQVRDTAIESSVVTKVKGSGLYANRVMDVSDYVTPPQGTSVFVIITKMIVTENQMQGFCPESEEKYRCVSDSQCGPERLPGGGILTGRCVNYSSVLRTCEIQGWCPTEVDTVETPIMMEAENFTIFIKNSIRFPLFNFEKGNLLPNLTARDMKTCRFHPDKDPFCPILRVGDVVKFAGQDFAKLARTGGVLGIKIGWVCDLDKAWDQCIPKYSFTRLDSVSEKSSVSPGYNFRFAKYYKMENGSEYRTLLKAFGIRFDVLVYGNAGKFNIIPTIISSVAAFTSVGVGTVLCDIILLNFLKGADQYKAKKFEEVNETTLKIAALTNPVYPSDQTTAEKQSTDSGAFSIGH
T1 sequence (Q9UBL9 1-471): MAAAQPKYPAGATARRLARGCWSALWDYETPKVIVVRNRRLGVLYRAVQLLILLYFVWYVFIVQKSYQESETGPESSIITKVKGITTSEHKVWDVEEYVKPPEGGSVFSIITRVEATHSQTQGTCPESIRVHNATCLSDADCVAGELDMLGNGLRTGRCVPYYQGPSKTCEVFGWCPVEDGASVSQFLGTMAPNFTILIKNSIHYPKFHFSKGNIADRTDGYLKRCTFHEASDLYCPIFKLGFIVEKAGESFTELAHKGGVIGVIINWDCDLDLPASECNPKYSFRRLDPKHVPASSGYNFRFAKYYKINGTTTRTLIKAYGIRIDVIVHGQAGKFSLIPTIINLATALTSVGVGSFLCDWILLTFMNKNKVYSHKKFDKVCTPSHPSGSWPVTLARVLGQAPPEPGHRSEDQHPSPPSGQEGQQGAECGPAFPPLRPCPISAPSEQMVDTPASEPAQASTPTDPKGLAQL
Method in brief: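 Antagonism was assessed by decrease of the Fluo8 calcium signal after ATP challenge, with ATP dosed at the EC50 of whichever receptor was tested. Stable 1321N1 astrocytoma lines expressed either human P2X3 or both P2X2 and P2X3, and were dye-loaded 60 min before a 10 min compound incubation.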

human P2X3 receptor [1] = molecular target: T2, human P2X3 receptor (Homo sapiens, UniProt P56373); assay: Intracellular calcium measurement to assess antagonist activity at human P2X3 receptors (hP2X3 CHO), photina luminescence; set-up: expressed in transfected cells; host or cells: Chinese hamster ovary (CHO) cells; details: column 2), CHO cells, agonist α,β-methylene-ATP at EC50
T2 sequence (P56373 1-397): T1 sequence (P56373 1-397)
Method in brief: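 Antagonism read as lowered photina luminescence after agonist stimulation in recombinant hP2X3/photina CHO cells. Cells seeded one day earlier (30 °C) and reconstituted with 5 μg/ml coelenterazine in 2 mM Ca-tyrode buffer for 3 h at 37 °C before measurement.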

human P2X3 receptor [2] = molecular target: T2, human P2X3 receptor; assay: Intracellular calcium measurement, antagonist activity at human P2X3 receptors (hP2X3 1321N1), Fluo8; set-up: expressed in transfected cells; host or cells: human astrocytoma 1321N1 (1312N1 [sic]); details: column 3); 1321N1 cells, human P2X3, Fluo8, agonist ATP at EC50
Method: 3) And 4) Intracellular Calcium Measurement to Compare Antagonist Activity at Human P2X3 Receptors (hP2X3 1321N1) and at Human P2X2/3 Receptors (hP2X23 1321N1)
The comparison of antagonistic activity at the P2X3 versus the P2X2/3 receptor of the compounds of the invention were performed by use of recombinant cell lines. These cell lines derived originally from the human astrocytoma cell line […] (Macintyre E H, Pontén J, Vatter A E. Acta Pathol Microbiol Scand A. 1972; 80(2):267-83). The cell lines are stably transfected with the human P2X3 receptor forming homotrimeric P2X3 receptors or are co-transfected with P2X2 and P2X3 forming heterotrimeric P2X2/3 receptors. Stimulation of the receptors with the agonist ATP leads to a conformational change of the receptors and influx of extracellular calcium ions through the open ion channel. The cytoplasmatic calcium transient is detected via the calcium sensitive dye Fluo8. The strength of Fluo8 fluorescence signal corresponds to the level of receptor activation. An inhibitor would decrease the signal depending on its potency and concentration. Fluorescence was measured by use of a suitable fluorescence reader.
On the day before the assay, the cells were plated in culture medium (DMEM high glucose, 10% FCS, 1% MEM non-essential amino acids, 4 mM Glutamax) in 384-well poly-D-lysine coated microtiter plates and kept in a cell incubator (96% humidity, 5% v/v CO2, 37° C.). On the day of the assay medium was exchanged by Fluo8 containing buffer and incubated for 60 minutes. Test compounds were added at various concentrations and plates were incubated for 10 minutes. In the fluorescence reader a 3 seconds baseline measurement was performed and the agonist ATP was applied at EC50 concentration of the respective receptor during constant fluorescence measurement for 120 seconds.

Row | Structure (SMILES) | IC50 (human P2X2/3 receptors) [nM] | hP2X23/hP2X3* Selectivity (1321N1) (human P2X2/3 receptors) | IC50 (human P2X3 receptor [1]) [nM] | IC50 (human P2X3 receptor [2]) [nM]
1 | CC(C)N1Cc2c(n(CC(=O)Nc3ccc(F)cn3)c3cc(C4CCCCC4)nn3c2=O)C1=O [Example 85] | 1950 | 328 | 4 | 6
2 | CC(C)N1Cc2c(n(CC(=O)Nc3ccc(F)cn3)c3cc(C(C)(C)O)nn3c2=O)C1=O [Example 88] | > 23500 | >423 | 115 | 56
3 | CC(C)N1Cc2c(n(CC(=O)Nc3ccc(F)cn3)c3cc(NC(=O)OC(C)(C)C)nn3c2=O)C1=O [Example 91] | 1900 | 58 | 27 | 33
4 | O=C(Cn1c2c(c(=O)n3nc(C4CCOCC4)cc13)CN(C1CCCC1)C2=O)Nc1ccc(F)cn1 [Example 92] | 5050 | 192 | 64 | 26
5 | CC(C)Cc1cc2n(CC(=O)Nc3ccc(F)cn3)c3c(c(=O)n2n1)CN(C1CCCC1)C3=O [Example 93] | 2350 | 295 | 6 | 8
6 | CC(C)N1Cc2c(n(CC(=O)Nc3ccc(F)cn3)c3cc(CC4CCOCC4)nn3c2=O)C1=O [Example 96] | 8800 | 345 | 20 | 26
7 | COCCN1Cc2c(n(CC(=O)Nc3ccc(F)cn3)c3cc(C4CCOCC4)nn3c2=O)C1=O [Example 97] | 9750 | 207 | 66 | 47
8 | COC[C@H](C)N1Cc2c(n(CC(=O)Nc3ccc(F)cn3)c3cc(C4CC4)nn3c2=O)C1=O [Example 101] | 6950 | 535 | 28 | 13
9 | O=C(Cn1c2c(c(=O)n3nc(C4CC4)cc13)CN(CCN1CCOCC1)C2=O)Nc1ccc(F)cn1 [Example 104] | > 32000 | >267 | 69 | 120
10 | O=C(Cn1c2c(c(=O)n3nc(Cl)cc13)CN(CCN1CCOCC1)C2=O)Nc1ccc(F)cn1 [Example 105] | > 32000 | >348 | 78 | 92
11 | COC[C@H](C)N1Cc2c(n(CC(=O)Nc3ccc(F)cn3)c3cc(C4CCC4)nn3c2=O)C1=O [Example 110] | 3050 | 254 | 7 | 12

The next lines start with the values.

Row | IC50 (human P2X2/3 receptors) [nM] | hP2X23/hP2X3* Selectivity (1321N1) (human P2X2/3 receptors) | IC50 (human P2X3 receptor [1]) [nM] | IC50 (human P2X3 receptor [2]) [nM] | Structure (SMILES)
12 | 1870 | 239 | 6 | 8 | CC(C)Cc1cc2n(CC(=O)Nc3ccc(F)cn3)c3c(c(=O)n2n1)CN(C(C)C)C3=O [Example 82]
13 | > 32000 | >48 | 370 | 665 | CCc1cc2n(CC(=O)Nc3ccc(F)cn3)c3c(c(=O)n2n1)CN(CC1CCOCC1)C3=O [Example 83]
14 | 2350 | 17 | 70 | 140 | CCc1cc2n(CC(=O)Nc3ccc(F)cn3)c3c(c(=O)n2n1)CN(C[C@H]1CN(C(=O)OC(C)(C)C)CCO1)C3=O [Example 86, tert-butyl(2S)-2-{[2-ethyl-4-{2-[(5-fluoropyridin-2-yl)amino]-2-oxoethyl}-5,8-dioxo-5,8-dihydro-4H-pyrazolo[1,5-a]pyrrolo[3,4-d]pyrimidin-6(7H)-yl]methyl}morpholine-4-carboxylate]
15 | 6550 | 49 | 64 | 135 | CCc1cc2n(CC(=O)Nc3ccc(F)cn3)c3c(c(=O)n2n1)CN(CC1CCN(C(=O)OC(C)(C)C)CC1)C3=O [Example 89]
16 | 3450 | 27 | 94 | 130 | CCc1cc2n(CC(=O)Nc3ccc(F)cn3)c3c(c(=O)n2n1)CN(C[C@@H]1CN(C(=O)OC(C)(C)C)CCO1)C3=O [Example 90, Tert-butyl(2R)-2-{[2-ethyl-4-{2-[(5-fluoropyridin-2-yl)amino]-2-oxoethyl}-5,8-dioxo-5,8-dihydro-4H-pyrazolo[1,5-a]pyrrolo[3,4-d]pyrimidin-6(7H)-yl]methyl}morpholine-4-carboxylate]
17 | > 23000 | >56 | 290 | 410 | CCc1cc2n(CC(=O)Nc3ccc(F)cn3)c3c(c(=O)n2n1)CN(C1CCOCC1)C3=O [Example 94]
18 | > 22500 | >82 | 178 | 273 | CCc1cc2n(CC(=O)Nc3ccc(F)cn3)c3c(c(=O)n2n1)CN(CCN1CCOCC1)C3=O [Example 95]
19 | 2600 | 211 | 8 | 12 | COCCN1Cc2c(n(CC(=O)Nc3ccc(F)cn3)c3cc(CC(C)C)nn3c2=O)C1=O [Example 98]
20 | 9100 | 607 | 21 | 15 | CCc1cc2n(CC(=O)Nc3ccc(F)cn3)c3c(c(=O)n2n1)CN(C(COC)COC)C3=O [Example 99]
21 | 4850 | 243 | 52 | 20 | COCCN1Cc2c(n(CC(=O)Nc3ccc(F)cn3)c3cc(C4CC4)nn3c2=O)C1=O [Example 100]
22 | > 22500 | >278 | 114 | 81 | COC[C@H](C)N1Cc2c(n(CC(=O)Nc3ccc(F)cn3)c3cc(Cl)nn3c2=O)C1=O [Example 102]
23 | 10500 | 227 | 69 | 46 | CCc1cc2n(CC(=O)Nc3ccc(F)cn3)c3c(c(=O)n2n1)CN(Cc1ccncc1)C3=O [Example 106]
24 | 5000 | 294 | 18 | 17 | CCc1cc2n(CC(=O)Nc3ccc(F)cn3)c3c(c(=O)n2n1)CN(Cc1cccnc1)C3=O [Example 107]
25 | 3200 | 200 | 18 | 16 | CCc1cc2n(CC(=O)Nc3ccc(F)cn3)c3c(c(=O)n2n1)CN(Cc1ccccn1)C3=O [Example 108]
26 | > 32000 | >114 | 133 | 280 | CCc1cc2n(CC(=O)Nc3ccc(F)cn3)c3c(c(=O)n2n1)CN(CCCOC)C3=O [Example 109]
27 | 2550 | 232 | 17 | 11 | CCc1cc2n(CC(=O)Nc3ccc(F)cn3)c3c(c(=O)n2n1)CN(Cc1ccc(F)cc1)C3=O [Example 112]
